Among the data in patent publication US20220125051A1, “PRE-HARVEST DESICCATION METHOD” (SYNGENTA CROP PROTECTION AG, priority 2019, published 2022) are pest or weed control values, retold here.

What all share (experiment): Post-emergence efficacy, Method A
Common to all, as to assay type: in vivo

In test [1] the test system is Ipomoea hederacea (IPOHE). Particulars: Ipomoea hederacea, post-emergence, 312 h, Application rate 500 g/Ha; evaluated after 13 days; 100=total damage to plant, 0=no damage to plant; read-out: Control of weed species after post-emergence application, IPOHE. A digest of the protocol: (§1)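 Visual damage score, 0 (no damage) to 100 (total), taken 13 d after spraying. Pot-grown plants at 14 d post-sowing received an aqueous spray from a 50 g/l acetone/IF50 solution diluted in 0.25% or 1% Empicol ESC70 + 1% ammonium sulphate; glasshouse 24/16 °C, 14 h light, 65% RH, watered twice daily.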

The next test concerns Lolium perenne (LOLPE). Particulars: Lolium perenne, post-emergence, 312 h, Application rate 500 g/Ha; evaluated after 13 days; 100=total damage to plant, 0=no damage to plant; read-out: Control of weed species after post-emergence application, LOLPE. In short, it runs like this: as §1
For test [2], the system named is Echinochloa crus-galli (ECHCG). Particulars: Echinochloa crus-galli, post-emergence, 312 h; Application rate 500 g/Ha; evaluated after 13 days; 100=total damage to plant, 0=no damage to plant; read-out: Control of weed species after post-emergence application, ECHCG. A digest of the protocol: as §1
For test [3], the system named is Euphorbia heterophylla (EPHHL). Particulars: Euphorbia heterophylla, post-emergence, 312 h; Application rate 500 g/Ha; evaluated after 13 days; 100=total damage to plant, 0=no damage to plant; read-out: Control of weed species after post-emergence application, EPHHL. In short, it runs like this:
as §1

Another test deals with Setaria faberi (SETFA). Particulars: Setaria faberi, post-emergence, 312 h; Application rate 500 g/Ha; evaluated after 13 days; 100=total damage to plant, 0=no damage to plant; read-out: Control of weed species after post-emergence application, SETFA. A digest of the protocol: as §1
The subject of test [4] is Amaranthus palmeri (AMAPA). Particulars: Amaranthus palmeri, post-emergence, 312 h; Application rate 500 g/Ha; evaluated after 13 days; 100=total damage to plant, 0=no damage to plant; read-out: Control of weed species after post-emergence application, AMAPA. In short, it runs like this:
as §1

The test system of another test is Eleusine indica (ELEIN). Particulars: Eleusine indica, post-emergence, 312 h; Application rate 500 g/Ha; evaluated after 13 days; 100=total damage to plant, 0=no damage to plant; read-out: Control of weed species after post-emergence application, ELEIN. A digest of the protocol: as §1
The test system of test [5] is Digitaria sanguinalis (DIGSA). Particulars: Digitaria sanguinalis, post-emergence, 312 h; Application rate 500 g/Ha; evaluated after 13 days; 100=total damage to plant, 0=no damage to plant; read-out: Control of weed species after post-emergence application, DIGSA. In short, it runs like this: as §1
For test [6], the system named is Chenopodium album (CHEAL). Particulars: Chenopodium album, post-emergence, 312 h; Application rate 500 g/Ha; evaluated after 13 days; 100=total damage to plant, 0=no damage to plant; read-out: Control of weed species after post-emergence application, CHEAL. A digest of the protocol: as §1

The structures appear in SMILES notation.

As to `CS(=O)(=O)c1cnc(-c2cc[n+](CCC(=O)[O-])nc2)nc1` [Compound A46], the pest or weed control at 500 g/ha was found to be 10% in [1]; 20% in the test with Lolium perenne (LOLPE); 30% in [2]; 60% in test [3]; 50% in the test on Setaria faberi (SETFA); 70% in test [4]. Further, the pest or weed control at 500 g/ha in the test on Eleusine indica (ELEIN) worked out at 50%; in test [5] it was 50%; in test [6] it was 10%.

Turning to `CC(=O)c1ccnc(-c2cc[n+](CCS(=O)(=O)[O-])nc2)n1` [Compound A49], the pest or weed control at 500 g/ha in test [1] is 60%; with Lolium perenne (LOLPE), 50%; in test [2] it was 60%; in test [3], 70%; with Setaria faberi (SETFA) it was 100%; in test [4], 100%. For the same compound, the pest or weed control at 500 g/ha is 100% with Eleusine indica (ELEIN), 90% in test [5] and 80% in test [6].

Turning to `O=S(=O)([O-])CC[n+]1ccc(-c2nccc(C3CC3)n2)cn1` [Compound A50], the pest or weed control at 500 g/ha in [1] amounted to 50%; with Lolium perenne (LOLPE), 60%; in test [2], 40%; in [3] it was 90%; in the test on Setaria faberi (SETFA), 60%; in [4], 100%. Besides, the pest or weed control at 500 g/ha was 90% in the test with Eleusine indica (ELEIN), 50% in test [5] and 20% in test [6].

Turning to `COC(=O)CC[n+]1ccc(-c2ncccn2)cn1` [Compound A54, methyl 3-(4-pyrimidin-2-ylpyridazin-1-ium-1-yl)propanoate 2,2,2-trifluoroacetate], the pest or weed control at 500 g/ha in test [1] amounted to 10%; in the test with Lolium perenne (LOLPE), 70%; in test [2], 90%; in test [3], 70%; with Setaria faberi (SETFA), 100%; in [4], 90%. Besides, the values for the pest or weed control at 500 g/ha (in the test with Eleusine indica (ELEIN); in [5]; in [6]) were 100%, 100% and 90%, respectively.

Turning to `CC(=O)c1cnc(-c2cc[n+](CCC(=O)[O-])nc2)nc1` [Compound A58], the pest or weed control at 500 g/ha in test [1] turned out to be 10%; in the test on Lolium perenne (LOLPE), 50%; in test [2] it was 60%; in [3], 60%; with Setaria faberi (SETFA), 90%; in test [4], 100%. In addition, the pest or weed control at 500 g/ha is 80% in the test with Eleusine indica (ELEIN), 90% in [5] and 80% in test [6].

`CNC(=O)c1ccnc(-c2cc[n+](CCC(=O)[O-])nc2)n1` [Compound A59]: the pest or weed control at 500 g/ha in test [1] is 80%; in the test on Lolium perenne (LOLPE), 70%; in test [2], 80%; in [3], 100%; in the test with Setaria faberi (SETFA), 100%; in test [4], 90%. Also, the results for the pest or weed control at 500 g/ha (with Eleusine indica (ELEIN); in test [5]; in test [6]) were 90%, 100% and 90%, respectively.

For the compound `Cc1cccc(-c2cc[n+](CCC(=O)[O-])nc2)n1` [Compound A63], the pest or weed control at 500 g/ha in test [1] came out at 20%; in the test with Lolium perenne (LOLPE), 20%; in [2], 40%; in [3], 30%; in the test with Setaria faberi (SETFA), 40%; in [4] it was 40%. Further, the pest or weed control at 500 g/ha turned out to be 50% in the test with Eleusine indica (ELEIN), 30% in test [5] and 30% in test [6].

With `O=S(=O)([O-])CC[n+]1ccc(-c2ccccn2)cn1` [Compound A64], the pest or weed control at 500 g/ha is 20% in test [1]; 80% in the test with Lolium perenne (LOLPE); 60% in [2]; 100% in test [3]; 90% with Setaria faberi (SETFA); 90% in [4]. Moreover, the results for the pest or weed control at 500 g/ha (in the test with Eleusine indica (ELEIN); in test [5]; in [6]) were 100%, 80% and 90%, respectively.

Consider `Cc1cccnc1-c1cc[n+](CCC(=O)[O-])nc1` [Compound A65], for which the pest or weed control at 500 g/ha worked out at 10% in [1]; 10% with Lolium perenne (LOLPE); 30% in test [2]; 20% in [3]; 40% with Setaria faberi (SETFA); 40% in test [4]. Also, the pest or weed control at 500 g/ha with Eleusine indica (ELEIN) amounted to 40%; in test [5], 30%; in test [6] it was 10%.

On to `Cc1cccnc1-c1cc[n+](CCS(=O)(=O)[O-])nc1` [Compound A66], for which the pest or weed control at 500 g/ha in test [1] came out at 40%; in the test on Lolium perenne (LOLPE), 50%; in test [2], 50%; in test [3] it was 50%; in the test on Setaria faberi (SETFA) it was 60%; in test [4] it was 40%. In addition, the pest or weed control at 500 g/ha stood at 40% in the test on Eleusine indica (ELEIN), 30% in [5] and 20% in [6].

Regarding `O=C([O-])CC[n+]1ccc(-c2ncccc2F)cn1` [Compound A67], the pest or weed control at 500 g/ha in test [1] stood at 20%; in the test with Lolium perenne (LOLPE) it was 40%; in test [2], 80%; in [3] it was 80%; in the test with Setaria faberi (SETFA) it was 70%; in test [4] it was 60%. The pest or weed control at 500 g/ha was determined as 70% in the test with Eleusine indica (ELEIN), 60% in test [5] and 50% in test [6].

`O=S(=O)([O-])CC[n+]1ccc(-c2ncccc2F)cn1` [Compound A68]: the pest or weed control at 500 g/ha in test [1] amounted to 50%; with Lolium perenne (LOLPE) it was 60%; in test [2] it was 70%; in test [3], 100%; in the test on Setaria faberi (SETFA), 60%; in test [4] it was 60%. The pest or weed control at 500 g/ha came to 70% in the test with Eleusine indica (ELEIN), 40% in test [5] and 70% in test [6].

Consider `O=S(=O)([O-])CC[n+]1ccc(-c2ccc(Cl)cn2)cn1` [Compound A69], for which the pest or weed control at 500 g/ha in [1] came out at 40%; in the test with Lolium perenne (LOLPE) it was 50%; in test [2], 40%; in test [3], 50%; in the test on Setaria faberi (SETFA), 40%; in test [4] it was 100%. Besides, the pest or weed control at 500 g/ha with Eleusine indica (ELEIN) turned out to be 60%; in test [5] it was 50%; in test [6] it was 60%.

Take `O=S(=O)([O-])CC[n+]1ccc(-c2ncc(F)cc2F)cn1` [Compound A70]: the pest or weed control at 500 g/ha in [1] amounted to 20%; with Lolium perenne (LOLPE), 20%; in test [2] it was 30%; in test [3], 50%; in the test with Setaria faberi (SETFA) it was 30%; in test [4], 90%. Also, the pest or weed control at 500 g/ha in the test on Eleusine indica (ELEIN) was determined as 20%; in test [5] it was 30%; in [6], 70%.

Regarding `O=C([O-])CC[n+]1ccc(-c2ccc(F)cn2)cn1` [Compound A71], the pest or weed control at 500 g/ha came to 40% in test [1]; 10% in the test with Lolium perenne (LOLPE); 30% in test [2]; 40% in test [3]; 30% in the test on Setaria faberi (SETFA); 100% in [4]. In addition, the pest or weed control at 500 g/ha with Eleusine indica (ELEIN) worked out at 30%; in test [5], 30%; in test [6], 60%.
